Entries after “also recorded” stand apart in the source; their conditions may differ.
What was measured:
Assay type in all cases: in vivo, human
[1] = tested on: patients with autoimmune diseases (psoriasis, rheumatoid arthritis, systemic scleroderma); test: Cytokine and CRP levels in patients with autoimmune diseases after single administration; conditions: for Interleukin 1 beta level: T0 = 1; for Interleukin 13 level: T0 = 4; for Interleukin 6 level: T0 = 4.6; for Interleukin 7 level: T0 = 7; for CRP level: T0 = 32; for Interleukin 12 level / Interleukin 17 (25) level: T0 = 40; for Interleukin 9 level: T0 = 50; for TNF alpha level: T0 = 60
Procedure: A similar approach was used in a limited group of patients with autoimmune diseases. 10 patients (5 with psoriasis, 3 with rheumatoid arthritis, 2 with systemic scleroderma) were administered once the composition of the invention and a sample of blood was taken at T1 (8 days), T2 (30 days) and T3 (60 days). Cytokine and CRP (C-Reactive Protein, an index of inflammation) levels were measured by SCREEN CRP TEST and compared to those at time 0 (before the treatment).

[2] = tested on: patients with C2 CEAP Class and bearing lower limbs varices; test: Venous refilling time measurement via photoplethysmography (FPG); conditions: for venous refilling time (VRT): Diluted Polidocanol Group
Excerpt: The results were confirmed by photoplethysmography in a limited number of patients (n=20) wherein the measurement of venous refilling registered and examined, compared to the beginning of the treatment (after at least 4 sessions), has evidenced an increase of the peripheral venous refilling time in 17 out of 20 cases, indicating a plausible increase of venous resistance, i.e. a reduction of the peripheral reticulo-capillary bed or anyway of the superficial venous system. • 9. Improvement of the so-called “cellulitis”. The results were as follows:
40 patients with C2 CEAP Class and bearing lower limbs varices were examined via photoplethysmography exam with a Photoplethysmograph with Light Reflection Rheography/1-Channel (Vasoquant 1000 D-Ppg), they were divided into two homogeneous groups wherein the venous refilling time was measured before and after the hemodynamic therapy.
In the Diluted Polidocanol Group the hemodynamic therapy was followed after 30 days by sclerosing treatment with diluted polidocanol, prepared as described in example 1. In the Basal Group, after hemodynamic therapy no further treatment was carried out.
In the Basal Group of 20 patients, measurements of the refilling time of the superficial veins (SV) via photoplethysmography (FPG) exam were carried out at time zero, at time 1 (1 month) after hemodynamic (surgical) therapy on the varices, and at time 6 (6 months) without any further treatment.
In the Diluted Polidocanol Group of 20 patients, measurements of the refilling time of the SV via FPG were carried out at time zero, at 1 month after hemodynamic (surgical) therapy on the varices, and at time 6 (6 months) after 3-4 sessions of sclerotherapy with the method of the invention.

[3] = tested on: healthy volunteer subjects; test: Serum immunoglobulin and light chain levels after treatment
Procedure: (§1) The recruited patients had already been subjected to one or more polidocanol treatments, but had undergone a wash-out period of at least 4 months.
Levels of IgM, IgG, IgA and of light chains kappa/lambda, kappa and lambda were also measured.
(§2) Determinations a)-d) were carried out with Multiple Immunomagnetic Assay (Bio-Plex, Bio-Rad). Ig determinations were carried out with commercially available kits.

[4] = tested on: individuals over 70 years old with a peripheral venous insufficiency; test: Serum CRP levels in individuals over 70 years old with osteoarticular problems; conditions: for CRP level: T2 (8 days)
Procedure: CRP levels in serum samples of individuals over 70 years old, chronically affected by osteoarticular problems, with or without pain, was also measured. CRP levels were measured within a group of 30 people, with a peripheral venous insufficiency. The subjects (23 females, 7 males) underwent sclerotherapy according to the invention. Then, CRP levels were measured at time 0 (beginning of treatment) at T1 (24 hours after treatment) and at T2 (8 days after treatment).

[5] = tested on: healthy volunteer subjects; test: Serum measurement of cytokines, chemokines and growth factors (Bio-Plex) after treatment
Procedure: as §1
Blood was then drawn at about 30′-1 hour (T1h), 1 day (T1), 7 days (T7) and 30 days (T30) after treatment, measuring the following serum parameters: • a) “Pro-inflammatory” cytokines: IL-1β, IL-6, IL-7, IL-12 (p70), IL-17, IFN-γ, TNF-α; • b) “Anti-inflammatory” cytokines: IL-1ra, IL-4, IL-5, IL-9, IL-13; • c) Chemokines: IL-8/CXCL8, IP-10/CXCL10, MIP-1α/CCL3, MIP-1β, RANTES/CCL5, Eotaxin/CCL11; • d) Growth factors: b-FGF, PDGF-bb, VEGF, G-CSF.
In a limited number of patients measurements 30 minutes and 3 hours after the treatment were carried out in order to identify short-term responses and assess possible acute inflammation indicators.
as §2
The determinations carried out were statistically analysed with the Friedman test and Dunns Multiple Comparison test. The most significant results are depicted in FIG. 1.

[6] = 7 days post treatment (T7) vs basal

With Polidocanol [diluted polidocanol] the “Interleukin 1 beta level” value ([1]; T1 (8 days) after single administration, average, 10 patients) was 1.5, the “Interleukin 13 level” value ([1]; T1 (8 days)) was 5 and the “Interleukin 6 level” value ([1]; T1 (8 days)) was 4.8. The “Interleukin 7 level” value ([1]; T1 (8 days)) was 9, the CRP level ([1]; T1 (8 days)) was 30 and the “Interleukin 12 level” value ([1]; T1 (8 days)) was 42. For the same substance, the “Interleukin 17 (25) level” value ([1]; T1 (8 days)) was 45, the “Interleukin 9 level” value ([1]; T1 (8 days)) was 80 and the TNF alpha level ([1]; T1 (8 days)) was 52. For the same substance, the “Interleukin 1 beta level” value ([1]; T2 (30 days)) was 1.7, the “Interleukin 13 level” value ([1]; T2 (30 days)) was 5 and the “Interleukin 6 level” value ([1]; T2 (30 days)) was 3.7. For the same substance, the “Interleukin 7 level” value ([1]; T2 (30 days)) was 3, the CRP level ([1]; T2 (30 days)) was 24 and the “Interleukin 12 level” value ([1]; T2 (30 days)) was 36. For the same substance, the “Interleukin 17 (25) level” value ([1]; T2 (30 days)) was 32, the “Interleukin 9 level” value ([1]; T2 (30 days)) was 100 and the TNF alpha level ([1]; T2 (30 days)) was 42. The “Interleukin 1 beta level” value ([1]; T3 (60 days)) was 1.2, the “Interleukin 13 level” value ([1]; T3 (60 days)) was 4 and the “Interleukin 6 level” value ([1]; T3 (60 days)) was 3.2. For the same substance, the “Interleukin 7 level” value ([1]; T3 (60 days)) was 3, the CRP level ([1]; T3 (60 days)) was 16 and the “Interleukin 12 level” value ([1]; T3 (60 days)) was 32. For the same substance, the “Interleukin 17 (25) level” value ([1]; T3 (60 days)) was 28, the “Interleukin 9 level” value ([1]; T3 (60 days)) was 120 and the TNF alpha level ([1]; T3 (60 days)) was 48. The “patients with an improved index according to FPG exam” value ([2]; 6 months, after 3-4 sessions, 18 out of 20) was 90%, the “venous refilling time (VRT)” value ([2]; 1 month, basal 24.3±6.78, p<0.05) was 35.3 ± 4.14 s and the “venous refilling time (VRT)” value ([2]; 6 months, after 3-4 sessions, p<0.05 vs 1 month) was 37.6 ± 4.13 s. The “refilling time at T6, Diluted Polidocanol Group vs basal group” value ([2]; T6 (6 months), basal group 35, p<0.001 Chi-squared test) was 38 s, the “cases with increase of the peripheral venous refilling time” value ([2]; n=20, after at least 4 sessions, compared to the beginning of the treatment) was 17 out of 20 and the IgA level ([3]; T30 with respect to T7 and T0) was “decrease”. The IgG level ([3]; T30 with respect to T7 and T0) was “decrease”, the IgM level ([3]; T30 with respect to T7 and T0) was “decrease” and the light chains levels ([3]; T30 with respect to T7 and T0) was “decrease”. For the same substance, the “immunogenic effect (IgM and IgG levels)” value ([3]; after 7 and 30 days, at the tested concentrations) was “absence of an immunogenic effect”, the “tested Ig levels” value ([3]; between T0 and T7) was “none of the tested Ig fluctuates” and the “CRP levels vs time 0” value ([4]; T1 (24 hours after treatment), 30 people over 70) was “did not show any variation”. For the same substance, the “individuals showing a notable reduction of CRP levels” value ([4]; T2 (8 days after treatment), 27 out of 30) was 90%, the CRP level ([4]; case with starting CRP level 15 mg/l) was 10 mg/L and the CRP level ([4]; case with starting CRP level 18 mg/l) was 9 mg/L. The CRP level ([4]; case with starting CRP level 27 mg/l) was 16 mg/L, the IL-8 level ([5]; 7-30 days) was “increases” and the IL-1ra serum level [5, 6] was “increase significantly; also recorded: significantly increased serum levels”. For the same substance, the IL-1β serum level [5, 6] was “increase significantly; also recorded: significantly increased serum levels”, the “IL-12 (p70) serum level” value [5, 6] was “increase significantly; also recorded: significantly increased serum levels” and the MIP-1β/CCL4 serum level [5, 6] was “modest variation (increase); also recorded: significantly increased serum levels”. For the same substance, the VEGF serum level [5, 6] was “Increase; also recorded: significantly increased serum levels”, the IL-7 serum level ([5]; 30 days (T30) vs T0, p<0.01) was “decreases in a statistically significant way; also recorded: decreases significantly; also recorded: decrease” and the IL-12 serum level ([5]; 30 days (T30) vs T0, p<0.05) was “increases significantly; also recorded: increase”. For the same substance, the IL-1ra serum level ([5]; 30 days (T30), p<0.05) was “increase”, the IL-1β serum level ([5]; 30 days (T30), p<0.05) was “increase” and the VEGF serum level ([5]; 30 days (T30), p<0.05) was “higher levels; also recorded: increase”. The “serum parameters, not-treated (T0) vs 1 day after treatment (T1)” value ([5]; T1, acute inflammatory reaction) was “None of the analysed parameters showed statistically significant differences”, the PDGFbb level ([5]; after treatment) was “increasing” and the b-FGF level ([5]; after treatment) was “increasing”. The “most of the serum parameters (except for IP-10/CXCL10) compared with T0” value ([5]; first hour after treatment (T30-45 min)) was “increased”, the “IL-2, IL-10, IL-15, GM-CSF and MCP-1/CCL2 serum levels” value ([5]; in vivo) was “below the detection limits” and the MIP-1α level ([5]; with respect to basal levels, within the 1st and 7th days) was “modest variation (increase)”.

Source: patent US12016831B2, “Polidocanol for use as immunomodulating agent” (priority 2018, dated 2024)
